This note sets out measurements from publication PMC9942807, “Structure–function correlates of fibrinogen binding by Acinetobacter adhesins critical in catheter-associated urinary tract infections” (Proceedings of the National Academy of Sciences of the …, 2023).

In assay [1] the target is bovine submaxillary mucin (BSM) (bovine). Put plainly: BLI; biotinylated BSM loaded on streptavidin pins; Abp2DRBD constructs at 2.07 µM in 1× PBS + 2% BSA + 0.05% Tween-20; 300 s association, 300 s dissociation; end time point of association compared.
Assay [2] has as its target bovine submaxillary mucin (BSM). Briefly: BLI. Conditions: parent: est. 0.65; read off a plot.
Assay [3] deals with T1, Abp1DRBD (Acinetobacter baumannii, UniProt A0A219C937).
T1 construct: gene fimA_2
Briefly: glycan microarray (CFG v5.[…]), biotinylated protein. It is filed as binding. The note with it: protein 50 μg/mL; glycan immobilised through spacer; labelled protein.

A further assay concerns the target T2, Abp2DRBD (Acinetobacter baumannii, UniProt A0A7U3Y091).
T2 construct: gene ACICU_01810
Briefly: glycan microarray (CFG v5.[…]), biotinylated protein. The format is binding. The note with it: protein 50 μg/mL; glycan immobilised through spacer; labelled protein.

Assay [4] has as its target T1, Abp1DRBD. Put plainly: glycan microarray (CFG v5.[…]), biotinylated protein. It is filed as binding. Conditions: protein 50 μg/mL; glycan immobilised through spacer; labelled protein. The source holds these as a separate data set.

As to “Abp2D receptor-binding domain (ACICU) R102A (domain or fragment)”, the percent reduction of binding relative to Abp2DRBD WT in assay [1] is 70%.
Same read-out and setting: under “Abp2D receptor-binding domain (ACICU) Y141A (domain or fragment)” stands 90%.
As for “Abp2D receptor-binding domain from ACICU (Abp2DRBD), wild type R86A”, in assay [2], the response was 0.66 nm.
On the same count and under the same terms, for “Abp2D receptor-binding domain from ACICU (Abp2DRBD), wild type R86E” the value was 0.02 nm; for “Abp2D receptor-binding domain from ACICU (Abp2DRBD), wild type Y100A”, 0.46 nm.
For “Fuca1-2Galb1-4(Fuca1-3)GlcNAcb1-2Mana1-6(Fuca1-2Galb1-4(Fuca1-3)GlcNAcb1-2Mana1-3)Manb1-4GlcNAcb1-4GlcNAb-Sp20 [compound 356]”, the “Abp1DRBD / Average RFU” value on Abp1DRBD [3] was 2,867 ± 192 RFU. The “Abp2DRBD / Average RFU” value on Abp2DRBD is recorded as 58,018 ± 2,343 RFU.
The like results for “Fuca1-2Galb1-4(Fuca1-3)GlcNAcb1-2Mana1-6(Fuca1-2Galb1-4(Fuca1-3)GlcNAcb1-4(Fuca1-2Galb1-4(Fuca1-3)GlcNAcb1-2)Mana1-3)Manb1-4GlcNAcb1-4GlcNAcb-Sp12 [compound 439]” were, in that order, 3,373 ± 55 RFU and 30,667 ± 511 RFU.
The like results for “Galb1-3GlcNAcb1-3Galb1-3GlcNAcb-Sp0 [compound 285]” were, in that order, 3,392 ± 319 RFU and 28,674 ± 4,137 RFU.
Consider “Galb1-4(Fuca1-3)GlcNAcb1-2Mana1-6(Galb1-4(Fuca1-3)GlcNAcb1-2Mana1-3)Manb1-4GlcNAcb1-4(Fuca1-6)GlcNAcb-Sp22 [compound 412]”, for which the “Abp1DRBD / Average RFU” value on Abp1DRBD [3] was 2,932 ± 266 RFU. Moreover, the “Abp2DRBD / Average RFU” value on Abp2DRBD was 48,357 ± 11,791 RFU.
Taken in the same sequence, the figures for “GlcNAcb1-3Galb1-4GlcNAcb1-2Mana1-6(GlcNAcb1-3Galb1-4GlcNAcb1-2Mana1-3)Manb1-4GlcNAcb1-4GlcNAcb-Sp12 [compound 531]” were 6,977 ± 1,001 RFU and 59,914 ± 1,963 RFU.
For “GlcNAcb1-3Galb1-4GlcNAcb1-3Galb1-4GlcNAcb1-2Mana1-6(GlcNAcb1-3Galb1-4GlcNAcb1-3Galb1-4GlcNAcb1-2Mana1-3)Manb1-4GlcNAcb1-4GlcNAcb-Sp12 [compound 535]”, the “Abp1DRBD / Average RFU” value on Abp1DRBD [3] is recorded as 4,735 ± 602 RFU. Also, the “Abp2DRBD / Average RFU” value at Abp2DRBD is given as 34,056 ± 4,827 RFU.
Taken in the same sequence, the figures for “GlcNAcb1-3Galb1-4GlcNAcb1-6(GlcNAcb1-3Galb1-4GlcNAcb1-2)Mana1-6(GlcNAcb1-3Galb1-4GlcNAcb1-2Man a1-3)Manb1-4GlcNAcb1-4GlcNAc-Sp24 [compound 545]” were 3,159 ± 350 RFU and 39,436 ± 6,368 RFU.
On to “Neu5Aca2-3Galb1-4GlcNAcb1-2Mana-Sp0 [compound 470]”, for which the “Abp1DRBD / Average RFU” value at Abp1DRBD [3] was 6,747 ± 133 RFU. For the same substance, the “Abp2DRBD / Average RFU” value at Abp2DRBD is on record as 53,822 ± 4,116 RFU.
For the substance “Neu5Aca2-3Galb1-4GlcNAcb1-3Galb1-4GlcNAcb1-3Galb1-4GlcNAcb1-2Mana1-6(Neu5Aca2-3Galb1-4GlcNAcb1-3Galb1-4GlcNAcb1-3Galb1-4GlcNAcb1-2Mana1-3)Manb1-4GlcNAcb1-4GlcNAcb-Sp12 [compound 582]”, the “Abp1DRBD / SD” value at Abp1DRBD [4] is 9,786 ± 418 RFU.
Turning to “Neu5Aca2-6Galb1-4GlcNAcb1-6GalNAca-Sp14 [compound 472]”, on Abp1DRBD [3], the “Abp1DRBD / Average RFU” value is on record as 4,714 ± 450 RFU. At Abp2DRBD, the “Abp2DRBD / Average RFU” value was 54,517 ± 1,322 RFU.
